14 compounds from patent publication US7816408B2, “Calcium receptor active compounds” (NPS Pharmaceuticals, Inc., priority 2002, dated 2010) can be followed below.

In general, EC50 refers to the concentration at which the effect is half-maximal.

For one test, the target named is T1, human calcium receptor (Homo sapiens, UniProt P41180).
T1 construct: expressed in transfected cells; host or cells: HEK293
T1 sequence (P41180 20-1078): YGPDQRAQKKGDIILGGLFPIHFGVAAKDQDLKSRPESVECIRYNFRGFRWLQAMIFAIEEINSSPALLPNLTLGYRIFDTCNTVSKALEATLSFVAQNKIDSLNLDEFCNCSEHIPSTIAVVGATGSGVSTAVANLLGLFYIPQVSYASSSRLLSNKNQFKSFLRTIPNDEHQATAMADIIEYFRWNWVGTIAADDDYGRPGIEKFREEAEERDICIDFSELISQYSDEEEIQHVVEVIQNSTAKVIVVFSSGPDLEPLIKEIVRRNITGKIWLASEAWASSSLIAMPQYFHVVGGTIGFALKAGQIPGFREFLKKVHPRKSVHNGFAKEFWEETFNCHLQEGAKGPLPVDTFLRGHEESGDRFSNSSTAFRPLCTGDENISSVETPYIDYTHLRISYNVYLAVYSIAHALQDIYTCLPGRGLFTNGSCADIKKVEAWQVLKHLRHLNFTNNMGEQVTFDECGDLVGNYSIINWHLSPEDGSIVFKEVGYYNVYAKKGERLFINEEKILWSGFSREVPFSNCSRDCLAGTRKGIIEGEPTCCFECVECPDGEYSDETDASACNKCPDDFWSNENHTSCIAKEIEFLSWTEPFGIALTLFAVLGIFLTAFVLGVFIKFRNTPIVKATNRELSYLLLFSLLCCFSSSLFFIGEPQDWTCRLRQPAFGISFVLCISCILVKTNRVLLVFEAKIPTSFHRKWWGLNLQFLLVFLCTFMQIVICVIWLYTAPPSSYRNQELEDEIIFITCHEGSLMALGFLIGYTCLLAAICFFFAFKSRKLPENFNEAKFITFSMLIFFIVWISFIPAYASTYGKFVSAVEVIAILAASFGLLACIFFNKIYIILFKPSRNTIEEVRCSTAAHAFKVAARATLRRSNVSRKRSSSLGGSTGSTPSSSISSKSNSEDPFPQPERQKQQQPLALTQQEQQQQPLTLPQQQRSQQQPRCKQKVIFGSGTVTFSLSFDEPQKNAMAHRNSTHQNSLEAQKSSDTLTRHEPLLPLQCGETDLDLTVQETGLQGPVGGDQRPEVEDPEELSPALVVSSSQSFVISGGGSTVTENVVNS
Nature of the test: Activity on calcium receptors: fluo-3 fluorescence in HEK293 cells transfected with human calcium receptor gene. It counts as cell-based. The following applies: HEK293 cells transfected with plasmid pHuPCaR4.0 (human calcium receptor gene), loaded with fluo-3; 1 mM CaCl2, 1 mM MgCl2. An outline of the steps:
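HEK293 cells transfected with human calcium receptor plasmid, loaded 1 h at 37 °C with about 5 μM fluo-3/AM. Cells then rinsed into HEPES-buffered HBSS with 1 mM CaCl2 and 1 mM MgCl2. Fluorescence read at 485/540 nm after compound addition.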

In another test the test system is normal male SD rats. Nature of the test: Plasma Ca^2+ level of rats after single oral administration. The format is in vivo. The note with it: rat, mean of six animals; for Plasma Ca^2+ (mmol/l) 1 hr: 1 hr after single oral dose 30 μmol/kg; for Plasma Ca^2+ (mmol/l) 2 hr: 2 hr after single oral dose 30 μmol/kg; for Plasma Ca^2+ (mmol/l) 4 hr: 4 hr after single oral dose 30 μmol/kg; for Plasma Ca^2+ (mmol/l) 8 hr: 8 hr after single oral dose 30 μmol/kg; for Plasma Ca^2+ (mmol/l) 24 hr: 24 hr after single oral dose 30 μmol/kg; for Plasma Ca^2+ (mmol/l) 48 hr: 48 hr after single oral dose 30 μmol/kg, vehicle 10% cyclodextrin. In short, it runs like this: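 Normal male SD rats (n=6/group) received a single oral dose of 30 μmol/kg in 10% cyclodextrin or, for some compounds, 1% sodium-CMC; vehicle controls received 2.5 ml/kg. Tail blood was drawn pre-dose and at 30 min and 1, 2, 4, 8 and 24 h for plasma Ca^2+ and serum PTH. PTH was compared with vehicle by Steel's test.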

[1] abbreviates: vehicle 10% cyclodextrin (** 1% sodium-CMC).

As to `C[C@@H](NCCC(=O)N(Cc1ccc(Cl)cc1)Cc1ccc(OC(F)(F)F)cc1)c1cccc2ccccc12` [Compound K-2283, N1-(4-chlorobenzyl)-N1-[4-(trifluoromethoxy)benzyl)-3-{[(1R)-1-(1-naphthyl)ethyl]-amino}propanamide], the 50% effective concentration (EC50) at human calcium receptor came to 93 nM. In the test with normal male SD rats (setting [1]), the “Plasma Ca^2+ (mmol/l) 1 hr” value stood at 1.395 mmol/L, the “Plasma Ca^2+ (mmol/l) 2 hr” value was determined as 1.305 mmol/L, the “Plasma Ca^2+ (mmol/l) 4 hr” value came out at 1.210 mmol/L and the “Plasma Ca^2+ (mmol/l) 8 hr” value worked out at 1.253 mmol/L.
With `C[C@@H](NCCCCCSc1c(F)c(F)c(C(F)(F)F)c(F)c1F)c1cccc2ccccc12` [Compound K-2284, N-[(1R)-1-(1-naphthyl)ethyl]-N-(5-{[2,3,5,6-tetrafluoro-4-(trifluoromethyl)phenyl]thio}pentyl) amine], the EC50 at human calcium receptor was determined as 360 nM. In addition, in the test on normal male SD rats (setting [1]), the “Plasma Ca^2+ (mmol/l) 1 hr” value amounted to 1.377 mmol/L, the “Plasma Ca^2+ (mmol/l) 2 hr” value stood at 1.267 mmol/L, the “Plasma Ca^2+ (mmol/l) 4 hr” value was 1.152 mmol/L and the “Plasma Ca^2+ (mmol/l) 8 hr” value is 1.102 mmol/L.
With `C[C@@H](NCCCCCCSc1ccc(Cl)cc1)c1cccc2ccccc12` [Compound K-2286, N-{6-[(4-chlorophenyl)thio]hexyl}-N-[(1R)-1-(1-naphthyl)ethyl]amine], the EC50 on human calcium receptor was found to be 620 nM. Moreover, in the test with normal male SD rats (setting [1]), the “Plasma Ca^2+ (mmol/l) 1 hr” value is 1.318 mmol/L, the “Plasma Ca^2+ (mmol/l) 2 hr” value is 1.218 mmol/L, the “Plasma Ca^2+ (mmol/l) 4 hr” value came to 1.088 mmol/L and the “Plasma Ca^2+ (mmol/l) 8 hr” value came out at 1.098 mmol/L. In the test on normal male SD rats (setting [1]), the “Plasma Ca^2+ (mmol/l) 24 hr” value came out at 1.390 mmol/L. In the test on normal male SD rats, the “Plasma Ca^2+ (mmol/l) 48 hr” value was determined as 1.412 mmol/L.
For the compound `C[C@@H](NCCCCSc1ccc(OC(F)(F)F)cc1)c1cccc2ccccc12` [Compound K-2287, N-[(1R)-1-(1-naphthyl)ethyl]-N-(4-{[4-(trifluoromethoxy)phenyl)thio]butyl)amine], the EC50 at human calcium receptor turned out to be 62 nM. Further, in the test with normal male SD rats (setting [1]), the “Plasma Ca^2+ (mmol/l) 1 hr” value was found to be 1.180 mmol/L, the “Plasma Ca^2+ (mmol/l) 2 hr” value stood at 1.042 mmol/L, the “Plasma Ca^2+ (mmol/l) 4 hr” value was 0.955 mmol/L and the “Plasma Ca^2+ (mmol/l) 8 hr” value was 0.950 mmol/L. For the same compound, the “Plasma Ca^2+ (mmol/l) 24 hr” value in the test with normal male SD rats (setting [1]) was 1.200 mmol/L. Further, the “Plasma Ca^2+ (mmol/l) 48 hr” value in the test with normal male SD rats was found to be 1.392 mmol/L.
`C[C@@H](NCCCCCSc1ccc(OC(F)(F)F)cc1)c1cccc2ccccc12` [Compound K-2288, N-[(1R)-1-(1-naphthyl)ethyl]-N-(5-{[4-(trifluoromethoxy)phenyl)thio]pentyl)amine]: the EC50 at human calcium receptor is 140 nM. In addition, in the test with normal male SD rats (setting [1]), the “Plasma Ca^2+ (mmol/l) 1 hr” value came to 1.190 mmol/L, the “Plasma Ca^2+ (mmol/l) 2 hr” value is 1.057 mmol/L, the “Plasma Ca^2+ (mmol/l) 4 hr” value was found to be 0.955 mmol/L and the “Plasma Ca^2+ (mmol/l) 8 hr” value stood at 0.905 mmol/L. Besides, in the test with normal male SD rats (setting [1]), the “Plasma Ca^2+ (mmol/l) 24 hr” value turned out to be 1.162 mmol/L. Besides, the “Plasma Ca^2+ (mmol/l) 48 hr” value in the test on normal male SD rats turned out to be 1.387 mmol/L.
Turning to `COc1ccc(CN(Cc2ccc(Cl)cc2)C(=O)CCN[C@H](C)c2cccc3ccccc23)cc1` [Compound K-2289, N1-(4-chlorobenzyl)-N1-(4-methoxybenzyl)-3-{[(1R)-1-(1-naphthyl)ethyl]amino}propanamide], the 50% effective concentration (EC50) at human calcium receptor amounted to 74 nM. Besides, in the test with normal male SD rats (setting [1]), the “Plasma Ca^2+ (mmol/l) 1 hr” value amounted to 1.270 mmol/L, the “Plasma Ca^2+ (mmol/l) 2 hr” value is 1.173 mmol/L, the “Plasma Ca^2+ (mmol/l) 4 hr” value was 1.003 mmol/L and the “Plasma Ca^2+ (mmol/l) 8 hr” value stood at 1.093 mmol/L.
Turning to `COc1ccc(CN(Cc2ccc(C(F)(F)F)cc2)C(=O)CCN[C@H](C)c2cccc3ccccc23)cc1` [Compound K-2290, N1-(4-methoxybenzyl)-N1-[4-(trifluoromethyl)benzyl)-3-{[(1R)-1-(1-naphthyl)ethyl]amino}propanamide], the half-maximal effective concentration (EC50) on human calcium receptor stood at 100 nM. For the same compound, in the test on normal male SD rats (setting [1]), the “Plasma Ca^2+ (mmol/l) 1 hr” value stood at 1.428 mmol/L, the “Plasma Ca^2+ (mmol/l) 2 hr” value is 1.248 mmol/L, the “Plasma Ca^2+ (mmol/l) 4 hr” value is 1.063 mmol/L and the “Plasma Ca^2+ (mmol/l) 8 hr” value was 1.055 mmol/L.
Regarding `C[C@@H](NCCC(=O)N(Cc1ccc(Cl)cc1)Cc1ccc2ccccc2c1)c1cccc2ccccc12` [Compound K-2291, N1-(4-chlorobenzyl)-N1-(2-naphthylmethyl)-3-{[(1R)-1-(1-naphthyl)ethyl]amino}propanamide], the 50% effective concentration (EC50) on human calcium receptor came out at 81 nM. For the same compound, in the test on normal male SD rats (setting [1]), the “Plasma Ca^2+ (mmol/l) 1 hr” value worked out at 1.298 mmol/L, the “Plasma Ca^2+ (mmol/l) 2 hr” value turned out to be 1.247 mmol/L, the “Plasma Ca^2+ (mmol/l) 4 hr” value worked out at 1.130 mmol/L and the “Plasma Ca^2+ (mmol/l) 8 hr” value amounted to 1.132 mmol/L.
For the compound `C[C@@H](NCCCCCCCSc1c(F)c(F)c(C(F)(F)F)c(F)c1F)c1cccc2ccccc12` [Compound K-2292, N-[(1R)-1-(1-naphthyl)ethyl]-N-(7-{[2,3,5,6-tetrafluoro-4-(trifluoromethyl)phenyl]thio}heptyl)amine], the concentration for a half-maximal effect (EC50) on human calcium receptor is 74 nM. Besides, in the test on normal male SD rats (setting [1]), the “Plasma Ca^2+ (mmol/l) 1 hr” value was determined as 1.375 mmol/L, the “Plasma Ca^2+ (mmol/l) 2 hr” value is 1.252 mmol/L, the “Plasma Ca^2+ (mmol/l) 4 hr” value was determined as 1.152 mmol/L and the “Plasma Ca^2+ (mmol/l) 8 hr” value turned out to be 1.108 mmol/L.
For the compound `C[C@@H](NCCCCSc1ccc(Cl)cc1)c1cccc2ccccc12` [Compound K-2293, N-{4-[(4-chlorophenyl)thio]butyl}-N-[(1R)-1-(1-naphthyl)ethyl]amine], the 50% effective concentration (EC50) on human calcium receptor came out at 280 nM. In the test with normal male SD rats (setting [1]), the “Plasma Ca^2+ (mmol/l) 1 hr” value is 1.245 mmol/L, the “Plasma Ca^2+ (mmol/l) 2 hr” value turned out to be 1.152 mmol/L, the “Plasma Ca^2+ (mmol/l) 4 hr” value came to 1.068 mmol/L and the “Plasma Ca^2+ (mmol/l) 8 hr” value was found to be 1.088 mmol/L.
For `Cc1ccc(CN(Cc2ccc(Cl)c(Cl)c2)C(=O)CCN[C@H](C)c2cccc3ccccc23)cc1` [Compound K-2294, N1-(3,4-dichlorobenzyl)-N1-(4-methylbenzyl)-3-{[(1R)-1-(1-naphthyl)ethyl]amino}propanamide], in that order: 62 nM, 1.357 mmol/L, 1.255 mmol/L, 1.117 mmol/L and 1.022 mmol/L.
For the compound `C[C@@H](NCCCCCSc1cc(Cl)ccc1Cl)c1cccc2ccccc12` [Compound K-2296, N-{[5-(2,5-dichlorophenyl)thio]pentyl}N-[(1R)-1-(1-naphthyl)ethyl]amine], the EC50 on human calcium receptor was 220 nM. Further, the “Plasma Ca^2+ (mmol/l) 0 hr” value in the test on normal male SD rats (0 hr = before oral administration of 30 μmol/kg, vehicle 10% cyclodextrin (** 1% sodium-CMC)) turned out to be 1.410 mmol/L. In the test on normal male SD rats (setting [1]), the “Plasma Ca^2+ (mmol/l) 1 hr” value is 1.340 mmol/L, the “Plasma Ca^2+ (mmol/l) 2 hr” value came out at 1.195 mmol/L, the “Plasma Ca^2+ (mmol/l) 4 hr” value was 1.113 mmol/L and the “Plasma Ca^2+ (mmol/l) 8 hr” value was 1.083 mmol/L.
On to `C[C@@H](NCCCCSc1c(F)c(F)c(C(F)(F)F)c(F)c1F)c1cccc2ccccc12` [Compound K-2297, N-[(1R)-1-(1-naphthyl)ethyl]-N-(4-{[2,3,5,6-tetrafluoro-4-(trifluoromethyl)phenyl]thio}butyl)amine], for which the EC50 on human calcium receptor was 230 nM. In the test on normal male SD rats (setting [1]), the “Plasma Ca^2+ (mmol/l) 1 hr” value turned out to be 1.393 mmol/L, the “Plasma Ca^2+ (mmol/l) 2 hr” value stood at 1.305 mmol/L, the “Plasma Ca^2+ (mmol/l) 4 hr” value came to 1.172 mmol/L and the “Plasma Ca^2+ (mmol/l) 8 hr” value was found to be 1.082 mmol/L.
The matching figures for `C[C@@H](NCCCCSc1cc(Cl)ccc1Cl)c1cccc2ccccc12` [Compound K-2298, N-{4-[(2,5-dichlorophenyl)thio]butyl}-N-[(1R)-1-(1-naphthyl)ethyl]amine]: 340 nM, 1.348 mmol/L, 1.265 mmol/L, 1.187 mmol/L and 1.100 mmol/L.
